Results reported in patent US8318725B2, “Aryl indolyl sulfonamide compounds and their use as 5-HT6 ligands” (Suven Life Sciences Limited, priority 2008, dated 2012).
Where a name gives a salt, the structure may show the parent alone.

Columns and labels:
[1] = target: T1, Human 5-HT6 receptor (Homo sapiens, UniProt P50406); test: Binding assay for human 5-HT6 receptor ([3H] LSD radioligand); settings: [3H] LSD 1.5 nM, human recombinant receptor in HEK293 cells; for inhibition at 0.1 µM: read-out: % Inhibition of specific binding at 100 nM
T1 construct: expressed in transfected cells; host or cells: HEK293
Description: Binding Assay for Human 5-HT6 Receptor
Compounds can be tested according to the following the procedures. Materials and Methods:
Receptor source: Human recombinant expressed in HEK293 cells
Radioligand: [^3H] LSD (60-80 Ci/mmol)
Final ligand concentration—[1.5 nM]
Non-specific determinant: Methiothepin mesylate—[0.1 μM]
Reference compound: Methiothepin mesylate
Positive control: Methiothepin mesylate
Reactions were carried out in […] TRIS-HCl (pH 7.4) containing 10 μM MgCl2, 0.5 mM EDTA for 60 minutes at 37° C. The reaction was terminated by rapid vacuum filtration onto glass fiber filters. Radioactivity trapped onto the filters was determined and compared to control values in order to ascertain any interactions of test compound(s) with the cloned serotonin 5-HT6binding site.
Literature Reference: Monsma F. J. Jr., et al., Molecular Cloning and Expression of Novel Serotonin Receptor with High Affinity for Tricyclic Psychotropic Drugs. Mol. Pharmacol. (43): 320-327 (1993).

T1 sequence (P50406 whole entry): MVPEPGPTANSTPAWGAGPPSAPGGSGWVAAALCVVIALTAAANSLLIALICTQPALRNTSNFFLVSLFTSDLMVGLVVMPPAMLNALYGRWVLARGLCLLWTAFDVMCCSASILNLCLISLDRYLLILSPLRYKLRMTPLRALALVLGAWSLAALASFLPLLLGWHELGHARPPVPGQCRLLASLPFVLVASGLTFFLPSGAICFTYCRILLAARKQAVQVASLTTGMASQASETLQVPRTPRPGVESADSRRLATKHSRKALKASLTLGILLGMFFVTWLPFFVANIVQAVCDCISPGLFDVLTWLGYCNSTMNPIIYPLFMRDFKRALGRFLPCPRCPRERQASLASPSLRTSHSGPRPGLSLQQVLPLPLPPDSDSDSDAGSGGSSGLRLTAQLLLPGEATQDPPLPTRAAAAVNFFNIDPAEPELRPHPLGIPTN

CN1CCN(Cc2cc(S(=O)(=O)n3ccc4ccccc43)ccc2Cl)CC1.Cl.Cl [Example 13, 1-[4-Chloro-3-(4-methylpiperazin-1-ylmethyl)benzenesulfonyl]-1H-indole dihydrochloride]
inhibition at 0.1 µM ([1]; 100 nM test compound): 83.3% | melting point: 210.6 to 213.9 °C

Cc1cn(S(=O)(=O)c2ccc(Cl)c(CN3CCCN(C)CC3)c2)c2ccccc12 [Example 46, 1-[4-Chloro-3-(4-methyl[1,4]diazepan-1-ylmethyl)benzenesulfonyl]-3-methyl-1H-indole dihydrochloride]
inhibition at 0.1 µM ([1]; 100 nM test compound): 92.2%

CCN1CCN(Cc2cc(S(=O)(=O)n3ccc4c(Cl)cccc43)ccc2Cl)CC1.Cl.Cl [Example 19, 1-[4-Chloro-3-(4-ethylpiperazin-1-ylmethyl)benzenesulfonyl]-4-chloro-1H-indole dihydrochloride]
inhibition at 0.1 µM ([1]; 100 nM test compound): 82% | melting point: 205.9 to 207.2 °C

COc1ccc2c(ccn2S(=O)(=O)c2ccc(Br)c(CN3CCN(C)CC3)c2)c1 [Example 2, 1-[4-Bromo-3-(4-methylpiperazin-1-ylmethyl)benzenesulfonyl]-5-methoxy-1H-indole]
melting point: 115.2 to 120 °C

COc1ccc2c(c1)c(Br)cn2S(=O)(=O)c1ccc(Cl)c(CN2CCN(C)CC2)c1.Cl.Cl
melting point: 195.4 to 199.3 °C

COc1ccc2c(ccn2S(=O)(=O)c2ccc(C)c(CN3CCN(C)CC3)c2)c1.Cl.Cl [Example 24, 1-[4-methyl-3-(4-methylpiperazin-1-ylmethyl)benzenesulfonyl]-5-methoxy-1H-indole dihydrochloride]
inhibition at 0.1 µM ([1]; 100 nM test compound): 62.2% | melting point: 198.1 to 199.3 °C

CCN1CCN(Cc2cc(S(=O)(=O)n3ccc4cc(OC)ccc43)ccc2Br)CC1 [Example 3, 1-[4-Bromo-3-(4-ethylpiperazin-1-ylmethyl)benzenesulfonyl]-5-methoxy-1H-indole]
inhibition at 0.1 µM ([1]; 100 nM test compound): 50.5% | melting point: 196.1 to 198.6 °C

CN1CCN(Cc2cc(S(=O)(=O)n3ccc4ccccc43)ccc2Br)CC1.Cl.Cl [Example 21, 1-[4-Bromo-3-(4-methylpiperazin-1-ylmethyl)benzenesulfonyl]-1H-indole dihydrochloride]
inhibition at 0.1 µM ([1]; 100 nM test compound): 88.8% | melting point: 214.1 to 216 °C

CCN1CCN(Cc2cc(S(=O)(=O)n3ccc4cc(F)ccc43)ccc2Cl)CC1.Cl.Cl [Example 25, 1-[4-Chloro-3-(4-ethylpiperazin-1-ylmethyl)benzenesulfonyl]-5-fluoro-1H-indole dihydrochloride]
inhibition at 0.1 µM ([1]; 100 nM test compound): 64.8% | melting point: 204.1 to 205.5 °C

CN1CCN(Cc2cc(S(=O)(=O)n3ccc4cc(F)ccc43)ccc2Cl)CC1.Cl.Cl [Example 14, 1-[4-Chloro-3-(4-methylpiperazin-1-ylmethyl)benzenesulfonyl]-5-fluoro-1H-indole dihydrochloride]
inhibition at 0.1 µM ([1]; 100 nM test compound): 73% | melting point: 220.2 to 221.3 °C

CCN1CCN(Cc2cc(S(=O)(=O)n3cc(C)c4ccccc43)ccc2Br)CC1.Cl.Cl [Example 39, 1-[4-Bromo-3-(4-ethylpiperazin-1-ylmethyl)benzenesulfonyl]-3-methyl-1H-indole dihydrochloride]
inhibition at 0.1 µM ([1]; 100 nM test compound): 91.5% | melting point: 204.1 to 206.5 °C

Cc1cn(S(=O)(=O)c2ccc(Br)c(CN3CCN(C)CC3)c2)c2ccccc12.Cl.Cl [Example 38, 1-[4-Bromo-3-(4-methylpiperazin-1-ylmethyl)benzenesulfonyl]-3-methyl-1H-indole dihydrochloride]
Ki [1]: 9.11 nM | melting point: 210.5 to 213 °C

CCN1CCN(Cc2cc(S(=O)(=O)n3ccc4cc(F)ccc43)ccc2Br)CC1 [Example 4, 1-[4-Bromo-3-(4-ethylpiperazin-1-ylmethyl)benzenesulfonyl]-5-fluoro-1H-indole]
inhibition at 0.1 µM ([1]; 100 nM test compound): 62.5% | melting point: 92.2 to 93.9 °C

COc1ccc2c(ccn2S(=O)(=O)c2ccc(Cl)c(CN3CCN(C)CC3)c2)c1.Cl.Cl [Example 16, 1-[4-Chloro-3-(4-methylpiperazin-1-ylmethyl)benzenesulfonyl]-5-methoxy-1H-indole dihydrochloride]
inhibition at 0.1 µM ([1]; 100 nM test compound): 42% | melting point: 208.8 to 210.2 °C

COc1ccc2c(ccn2S(=O)(=O)c2cccc(CN3CCN(C)CC3)c2)c1 [Example 9, 5-Methoxy-1-[3-(4-methylpiperazin-1-ylmethyl)benzenesulfonyl]-1H-indole]
inhibition at 0.1 µM ([1]; 100 nM test compound): 67.6%

CCN1CCCN(Cc2cc(S(=O)(=O)n3cc(C)c4ccccc43)ccc2Cl)CC1 [Example 45, 1-[4-Chloro-3-(4-ethyl-[1,4]diazepan-1-ylmethyl)benzenesulfonyl]-3-methyl-1H-indole dihydrochloride]
inhibition at 0.1 µM ([1]; 100 nM test compound): 98.5%

CCN1CCN(Cc2cc(S(=O)(=O)n3cc(C)c4cc(OC)ccc43)ccc2Br)CC1.Cl.Cl
melting point: 211.3 to 212.1 °C

CCN1CCN(Cc2cc(S(=O)(=O)n3ccc4ccccc43)ccc2Cl)CC1.Cl.Cl [Example 15, 1-[4-Chloro-3-(4-ethylpiperazin-1-ylmethyl)benzenesulfonyl]-1H-indole dihydrochloride]
Ki [1]: 18.4 nM | melting point: 196 to 197.1 °C

CCN1CCN(Cc2cc(S(=O)(=O)n3cc(C)c4cc(OC)ccc43)ccc2Cl)CC1.Cl.Cl [Example 30, 1-[4-Chloro-3-(4-ethylpiperazin-1-ylmethyl)benzenesulfonyl]-5-methoxy-3-methyl-1H-indole dihydrochloride]
inhibition at 0.1 µM ([1]; 100 nM test compound): 68% | melting point: 217.5 to 220.8 °C

CN1CCN(Cc2cc(S(=O)(=O)n3ccc4cc(F)ccc43)ccc2Br)CC1.Cl.Cl
melting point: 219.4 to 221.6 °C

CCN1CCN(Cc2cc(S(=O)(=O)n3ccc4cc(F)ccc43)ccc2C)CC1.Cl.Cl [Example 44, 1-[4-Methyl-3-(4-ethylpiperazin-1-ylmethyl)benzenesulfonyl]-5-fluoro-1H-indole dihydrochloride]
inhibition at 0.1 µM ([1]; 100 nM test compound): 78.5% | melting point: 203.4 to 206.2 °C

CCN1CCN(Cc2cc(S(=O)(=O)n3ccc4cc(Br)ccc43)ccc2Cl)CC1.Cl.Cl [Example 29, 1-[4-Chloro-3-(4-ethylpiperazin-1-ylmethyl)benzenesulfonyl]-5-bromo-1H-indole dihydrochloride]
inhibition at 0.1 µM ([1]; 100 nM test compound): 71.8% | melting point: 208.6 to 212.8 °C

CCN1CCN(Cc2cc(S(=O)(=O)n3ccc4ccccc43)ccc2Br)CC1 [Example 1, 1-1-[4-Bromo-3-(4-ethylpiperazin-1-ylmethyl)benzenesulfonyl]-1H-indole]
% Inhibition of specific binding at 100 nM ([1]; 100 nM test compound): 78.91%

CCN1CCN(Cc2cc(S(=O)(=O)n3ccc4cc(OC)ccc43)ccc2Cl)CC1.Cl.Cl [Example 18, 1-[4-Chloro-3-(4-ethylpiperazin-1-ylmethyl)benzenesulfonyl]-5-methoxy-1H-indole dihydrochloride]
inhibition at 0.1 µM ([1]; 100 nM test compound): 55.7% | melting point: 209.5 to 211 °C

CCN1CCN(Cc2cc(S(=O)(=O)n3ccc4cc(OC)ccc43)ccc2C)CC1.Cl.Cl
melting point: 160.94 °C

CN1CCN(Cc2cc(S(=O)(=O)n3ccc4c(Cl)cccc43)ccc2Cl)CC1.Cl.Cl [Example 20, 1-[4-Chloro-3-(4-methylpiperazin-1-ylmethyl)benzenesulfonyl]-4-chloro-1H-indole dihydrochloride]
inhibition at 0.1 µM ([1]; 100 nM test compound): 85.2% | melting point: 242.7 to 244.3 °C

CN1CCN(Cc2cccc(S(=O)(=O)n3ccc4cc(F)ccc43)c2)CC1 [Example 10, 5-Fluoro-1-[3-(4-methylpiperazin-1-ylmethyl)benzenesulfonyl]-1H-indole]
inhibition at 0.1 µM ([1]; 100 nM test compound): 79.2%

CN1CCN(Cc2cc(S(=O)(=O)n3ccc4cc(Br)ccc43)ccc2Cl)CC1.Cl.Cl
melting point: 214.7 to 215.6 °C

CCN1CCN(Cc2cc(S(=O)(=O)n3ccc4cc(Br)ccc43)ccc2Br)CC1.Cl.Cl [Example 37, 1-[4-Bromo-3-(4-ethylpiperazin-1-ylmethyl)benzenesulfonyl]-5-bromo-1H-indole dihydrochloride]
inhibition at 0.1 µM ([1]; 100 nM test compound): 55.9% | melting point: 205.1 to 207.1 °C

CCN1CCN(Cc2cc(S(=O)(=O)n3cc(C)c4ccccc43)ccc2Cl)CC1.Cl.Cl
melting point: 218.9 to 220.5 °C

CCOc1ccc2c(ccn2S(=O)(=O)c2cccc(CN3CCN(C)CC3)c2)c1 [Example 11, 5-Ethoxy-1-[3-(4-methylpiperazin-1-ylmethyl)benzenesulfonyl]-1H-indole]
inhibition at 0.1 µM ([1]; 100 nM test compound): 63.7%

CCN1CCN(Cc2cc(S(=O)(=O)n3cc(C)c4cc(OC)ccc43)ccc2C)CC1.Cl.Cl
melting point: 226.99 °C

CN1CCN(Cc2cc(S(=O)(=O)n3ccc4cc(Br)ccc43)ccc2Br)CC1.Cl.Cl
melting point: 208.2 to 209.2 °C

COc1ccc2c(c1)c(C)cn2S(=O)(=O)c1ccc(Br)c(CN2CCN(C)CC2)c1.Cl.Cl
melting point: 214.3 to 215.7 °C

CCN1CCN(Cc2cc(S(=O)(=O)n3cc(Br)c4cc(OC)ccc43)ccc2Cl)CC1.Cl.Cl
melting point: 216.9 to 219.7 °C

CN1CCN(Cc2cc(S(=O)(=O)n3cc(Br)c4cc(F)ccc43)ccc2Cl)CC1 [Example 5, 1-[4-Chloro-3-(4-methylpiperazin-1-ylmethyl)benzenesulfonyl]-5-fluoro-3-bromo-1H-indole]
melting point: 161.3 to 162.6 °C

COc1ccc2c(c1)c(C)cn2S(=O)(=O)c1ccc(C)c(CN2CCN(C)CC2)c1.Cl.Cl
melting point: 190.32 °C

COc1ccc2c(c1)c(C)cn2S(=O)(=O)c1ccc(Cl)c(CN2CCN(C)CC2)c1.Cl.Cl
melting point: 213.3 to 214.2 °C
